The target of this test is T1, A1-T459C (mutant ASCT1) (Homo sapiens, UniProt P43007, T459C).
T1 construct: expressed in transfected cells; host or cells: Xenopus laevis oocytes (cRNA injection)
T1 sequence (P43007 1-532 T459C): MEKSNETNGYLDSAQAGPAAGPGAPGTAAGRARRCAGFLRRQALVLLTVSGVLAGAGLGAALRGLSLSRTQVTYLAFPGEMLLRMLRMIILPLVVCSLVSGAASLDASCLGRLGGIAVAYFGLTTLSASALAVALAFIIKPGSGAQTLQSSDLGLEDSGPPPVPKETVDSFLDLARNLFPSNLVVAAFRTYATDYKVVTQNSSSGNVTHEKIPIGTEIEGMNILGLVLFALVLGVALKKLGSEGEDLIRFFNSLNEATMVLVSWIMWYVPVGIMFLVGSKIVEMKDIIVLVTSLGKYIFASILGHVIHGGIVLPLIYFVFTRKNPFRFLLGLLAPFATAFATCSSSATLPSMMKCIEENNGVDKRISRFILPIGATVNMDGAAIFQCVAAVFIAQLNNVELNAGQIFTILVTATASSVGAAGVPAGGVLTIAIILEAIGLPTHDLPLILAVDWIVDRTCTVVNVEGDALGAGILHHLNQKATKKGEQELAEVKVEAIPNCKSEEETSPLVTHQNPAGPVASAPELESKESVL
In words: Two electrode voltage clamp, substrate-activated anion current in oocytes expressing A1-T459C. The test is classed as cell-based. As to conditions: for EC50: A1-T459C in oocytes, NO3−-containing buffer, current at +60 mV. The method, then:
All chemicals were obtained from Sigma unless otherwise stated. Stage V oocytes were harvested from female Xenopus laevis (frogs) which were obtained from Nasco (Fort Alkinson, USA). Frogs were anaesthetised with 6.5 mM tricaine neutralised with 7.14 mM sodium bicarbonate. After making an incision in the abdomen of the frog, ovarian sacs were removed and stored in OR-2 buffer (82.5 mM NaCl, 2 mM KCl, 1 mM MgCl2, 5 mM hemisodium HEPES, pH 7.5). This surgical procedure follows a protocol (#2016/970) approved by the University of Sydney Animal Ethics Committee under the Australian Code of Practice for the Care and Use of Animals for Scientific Purposes. To isolate oocytes, the ovarian sacs were cut into small sections before being digested by agitation with 2 mg per ml Collagenase A for 1–2 h. Following digestion, defoliculated oocytes were initially rinsed with OR-2, followed by frog Ringer’s solution (96 mM NaCl, 2 mM KCl, 1 mM MgCl2, 1.8 mM CaCl2, 5 mM hemisodium HEPES, pH 7.5). A total of 20 ng of transporter cRNA was injected into oocytes which were stored in frog Ringer’s solution supplemented with 0.1% gentamycin, 50 μg per ml tetracycline, 2.5 mM pyruvate and 0.5 mM theophylline at 16–18 °C.
After 2–4 days of microinjection, current recordings were made using the two electrode voltage clamp technique with a Geneclamp 500 amplifier (Axon Instruments, Foster City, CA) interfaced with a MacLab 2e chart recorder (ADI Instruments, Sydney, Australia) using the chart software, and a Digidata 1322A (Axon Instruments) controlled by an IBM-compatible computer using the pClamp software (version 10, Molecular Devices, Union City, CA). The current–voltage relationships for substrate elicited conductances were obtained by subjecting cells to 200 ms voltage pulses between −100 mV and + 60 mV in 10 mV steps. Current–voltage relationships were calculated by subtracting steady state current measurements in the absence of substrate from corresponding current measurements in the presence of substrate. […]

Each structure is given as a SMILES string.

`N[C@@H](CO)C(=O)O` [L-serine] showed an EC50 of 83 ± 6 µM.

For the compound `N[C@@H](CCC(=O)Nc1ccc([N+](=O)[O-])cc1)C(=O)O` [GPNA, glutamyl-p-nitroanilide], the “GPNA % inhibition of L-serine activated current” value (A1-T459C, GPNA co-applied with EC50 of L-serine, maximal dose / 1 mM GPNA (Table 1 footnote)) is reported as 18 ± 1%.

In turn, `NC(=O)CC[C@H](N)C(=O)O` [L-glutamine] showed a half-maximal effective concentration (EC50) of 260 ± 80 µM.

For the origin of these results see publication PMC5750217 (Nature Communications, 2018).
